For 35 molecules, Activity and EC50 results are on record in ChEMBL document CHEMBL5053492, “Discovery of tert-amine-based RORγt agonists” (Eur J Med Chem, 2021).

Broadly, the EC50 is the concentration at which the effect is half-maximal.

A value given as a limit tells only on which side of the number the result lay.

The first experiment addresses T1, Nuclear receptor ROR-gamma (Mus musculus) (UniProt P51450).
T1 sequence (whole entry): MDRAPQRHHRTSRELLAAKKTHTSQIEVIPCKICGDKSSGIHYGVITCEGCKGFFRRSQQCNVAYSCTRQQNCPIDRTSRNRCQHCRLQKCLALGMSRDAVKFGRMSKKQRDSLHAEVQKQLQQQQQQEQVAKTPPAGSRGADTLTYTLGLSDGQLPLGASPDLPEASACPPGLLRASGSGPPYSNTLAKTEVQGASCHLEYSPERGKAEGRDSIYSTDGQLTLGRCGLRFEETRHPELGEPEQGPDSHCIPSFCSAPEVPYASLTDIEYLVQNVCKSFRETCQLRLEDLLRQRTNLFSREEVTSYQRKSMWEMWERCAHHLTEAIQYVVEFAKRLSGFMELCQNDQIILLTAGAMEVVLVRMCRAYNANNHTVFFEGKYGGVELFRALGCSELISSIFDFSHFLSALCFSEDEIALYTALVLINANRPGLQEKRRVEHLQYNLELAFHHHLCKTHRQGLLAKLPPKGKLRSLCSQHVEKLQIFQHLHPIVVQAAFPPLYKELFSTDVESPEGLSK
The experiment can be described thus: Agonist activity at RORgammat in mouse CD4+ T cells assessed as induction of Th17 cells differentiation by measuring increase in IL17 production at 250 nM measured after 4 days by intracellular staining based flow cytometry (reference value: 16.5 %). Conditions: CD4+ve Th, time 4.0 day. It counts as cell-based. A general note: A flow cytometer gives signals particle by particle.
As to `CCCN(Cc1ccc(NC(=O)Cc2ccc(S(C)(=O)=O)cc2)cc1Cl)CC1CCCCC1`, the Activity was 21.9%.

The next experiment deals with T2, Nuclear receptor ROR-gamma (Homo sapiens, UniProt P51449).
T2 sequence (P51449 whole entry): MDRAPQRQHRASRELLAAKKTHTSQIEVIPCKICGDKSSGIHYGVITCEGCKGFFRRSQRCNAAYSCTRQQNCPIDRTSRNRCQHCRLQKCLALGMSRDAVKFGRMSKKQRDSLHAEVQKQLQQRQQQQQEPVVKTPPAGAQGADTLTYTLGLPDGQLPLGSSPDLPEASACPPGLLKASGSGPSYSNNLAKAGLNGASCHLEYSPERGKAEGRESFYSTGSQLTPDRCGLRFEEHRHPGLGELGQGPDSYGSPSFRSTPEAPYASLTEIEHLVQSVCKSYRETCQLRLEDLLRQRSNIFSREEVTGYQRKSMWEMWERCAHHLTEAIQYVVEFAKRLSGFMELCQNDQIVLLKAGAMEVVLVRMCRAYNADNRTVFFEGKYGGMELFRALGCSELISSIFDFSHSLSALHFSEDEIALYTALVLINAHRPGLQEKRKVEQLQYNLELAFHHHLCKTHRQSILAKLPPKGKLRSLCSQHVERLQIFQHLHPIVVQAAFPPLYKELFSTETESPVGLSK
The experiment can be described thus: Agonist activity at APC-labeled RORgammat LBD (unknown origin) incubated for 1 hr in presence of europium labeled co-activator SRC1 by dual FRET assay.
Conditions: not given
With `CCS(=O)(=O)c1ccc(CC(=O)Nc2ccc(NCCc3ccccc3)cc2)cc1`, the concentration giving a half-maximal response (EC50) was found to be 55.2 nM.

For the molecule `CCS(=O)(=O)c1ccc(CC(=O)Nc2ccc(CNCc3ccccc3)cc2)cc1`, the EC50 is above 30000 nM.

`CCCN(Cc1ccc(NC(=O)Cc2ccc(S(=O)(=O)CC)cc2)cc1)Cc1cccnc1`: the concentration for a half-maximal effect (EC50) worked out at 40.2 nM.

On to `CCCN(Cc1ccc(NC(=O)Cc2ccc(S(=O)(=O)CC)cc2)cc1)CC1CCCC1`, for which the 50% effective concentration (EC50) was 109 nM.

In the case of `CCCN(Cc1ccccc1)Cc1ccc(NCCc2ccc(S(=O)(=O)CC)cc2)cc1`, the half-maximal effective concentration (EC50) was 33.6 nM.

As to `CCCN(Cc1ccc(Cl)cc1)Cc1ccc(NC(=O)Cc2ccc(S(=O)(=O)CC)cc2)cc1`, the EC50 is 16.8 nM.

Consider `CCCN(Cc1ccccc1)Cc1ccc(NC(=O)NCc2ccc(S(=O)(=O)CC)cc2)cc1`, for which the EC50 is 58 nM.

On to `CCCN(Cc1ccc(NC(=O)Cc2ccc(S(=O)(=O)CC)cc2)cc1)CC1CC1`, for which the EC50 amounted to 6530 nM.

Take `CCCN(Cc1ccccc1)Cc1ccc(NC(=O)Cc2ccc(C(=O)O)cc2)cc1`: the EC50 is above 30000 nM.

As for `CCCN(Cc1ccccc1)Cc1ccc(C(=O)NCc2ccc(S(=O)(=O)CC)cc2)cc1`, the half-maximal effective concentration (EC50) turned out to be 9.2 nM.

Take `CCCN(Cc1ccc(NC(=O)Cc2ccc(S(=O)(=O)CC)cc2)cc1)Cc1ccccc1C`: the concentration giving a half-maximal response (EC50) amounted to 11.6 nM.

Turning to `CCCN(Cc1ccc(NC(=O)Cc2ccc(S(=O)(=O)CC)cc2)cc1)CC1CCC(F)(F)CC1`, the EC50 worked out at 79.6 nM.

As to `CCCN(CCc1ccccc1)c1ccc(NC(=O)Cc2ccc(S(=O)(=O)CC)cc2)cc1`, the EC50 is 11.6 nM.

As for `CCS(=O)(=O)c1ccc(CC(=O)Nc2ccc(CN(C)Cc3ccccc3)cc2)cc1`, the concentration for a half-maximal effect (EC50) was determined as 101 nM.

Consider `CCCN(Cc1ccc(NC(=O)Cc2ccc(S(=O)(=O)CC)cc2)cc1)CC1CCOCC1`, for which the half-maximal effective concentration (EC50) was 86.2 nM.

In the case of `CCCN(Cc1ccc(NC(=O)Cc2ccc(S(=O)(=O)CC)cc2)cc1)CC1CCC1`, the EC50 was 291 nM.

`CCCN(Cc1ccc(NC(=O)Cc2ccc(S(=O)(=O)CC)cc2)cc1)Cc1nccs1`: the 50% effective concentration (EC50) is above 30000 nM.

`CCCN(Cc1ccc(NC(=O)Cc2ccc(S(=O)(=O)CC)cc2)cc1)CC1CCCO1` (stereo unspecified): the EC50 stood at 285 nM.

In the case of `CCS(=O)(=O)c1ccc(CC(=O)Nc2ccc(CN(Cc3ccccc3)CC3CC3)cc2)cc1`, the half-maximal effective concentration (EC50) worked out at 14 nM.

Take `CCN(Cc1ccccc1)Cc1ccc(NC(=O)Cc2ccc(S(=O)(=O)CC)cc2)cc1`: the EC50 came to 36.3 nM.

For `CCS(=O)(=O)c1ccc(CC(=O)Nc2ccc(CN(Cc3ccccc3)CC3CC3)c(Cl)c2)cc1`, the 50% effective concentration (EC50) was 8 nM.

Take `CCCN(Cc1ccccc1)Cc1ccc(NC(=O)Cc2ccccc2)cc1`: the EC50 came to 2170 nM.

With `CCS(=O)(=O)c1ccc(CC(=O)Nc2ccc(CN(Cc3ccccc3)CC3CCC3)cc2)cc1`, the concentration giving a half-maximal response (EC50) turned out to be 7.1 nM.

For `CCCN(Cc1ccccc1)Cc1c(Cl)cc(NC(=O)Cc2ccc(S(=O)(=O)CC)cc2)cc1Cl`, the half-maximal effective concentration (EC50) is 8.2 nM.

For the molecule `CCCN(Cc1ccccc1)Cc1ccc(NC(=O)Cc2ccc(S(=O)(=O)CC)cc2)cc1Cl`, the 50% effective concentration (EC50) amounted to 8.7 nM.

As to `CCCN(Cc1ccc(NC(=O)Cc2ccc(S(=O)(=O)CC)cc2)cc1)Cc1ccccc1F`, the half-maximal effective concentration (EC50) is 9.4 nM.

As for `CCCN(Cc1ccccc1)Cc1ccc(NC(=O)Cc2ccc(C#N)cc2)cc1`, the EC50 is 346 nM.

`CCCN(Cc1ccccc1)Cc1ccc(NC(=O)Cc2ccc(S(=O)(=O)CC)cn2)cc1`: the half-maximal effective concentration (EC50) was 7100 nM.

Turning to `CCCN(Cc1ccccc1)Cc1ccc(NC(=O)Cc2ccc(S(C)(=O)=O)cc2)cc1`, the EC50 was determined as 43.1 nM.

Take `CCCCN(Cc1ccccc1)Cc1ccc(NC(=O)Cc2ccc(S(=O)(=O)CC)cc2)cc1`: the EC50 is 11.1 nM.

As for `CCCN(Cc1ccc(NC(=O)Cc2ccc(S(=O)(=O)CC)cc2)cc1)Cc1cccs1`, the EC50 was 29.1 nM.

Regarding `CCCN(Cc1ccc(NC(=O)Cc2ccc(S(=O)(=O)CC)cc2)cc1)Cc1ccccc1Cl`, the EC50 turned out to be 16.9 nM.

In another experiment the target is T2, Nuclear receptor ROR-gamma. As to the kind of experiment: Agonist activity at human RORgammat LBD expressed in HEK293T cells assessed as increase in Gal4 reporter gene transcription measured after 16 to 20 hrs by luciferase reporter gene assay. It counts as cell-based.
Conditions: not given
Take `CCCN(Cc1c(Cl)cc(NC(=O)Cc2ccc(S(C)(=O)=O)cc2)cc1Cl)CC1CCCCC1`: the half-maximal effective concentration (EC50) worked out at 382 nM.

Turning to `CCCN(Cc1ccc(NC(=O)Cc2ccc(S(C)(=O)=O)cc2)cc1)CC1CCCCC1`, the EC50 is 277 nM.

As for `CCCN(Cc1ccc(NC(=O)Cc2ccc(S(C)(=O)=O)cc2)cc1Cl)CC1CCCCC1`, the EC50 was 283 nM.
